Experimental data reported in article PMC11123956, “Nobiletin Stimulates Adrenal Hormones and Modulates the Circadian Clock in Mice” (Nutrients, 2024).

Tests used:
PDE7B = molecular target: T1, PDE7B (Homo sapiens, UniProt Q9NP56); experiment: PDE enzyme  assay, PDE7B; assay type: biochemical
T1 construct: purchased Eurofins Panlabs Discovery Services Taiwan, Ltd. (contract assay); host or cells: insect Sf9 cells
Procedure: (§1) Enzyme assays for various subtypes of PDE (Table 1 and Figure 4) were conducted by Eurofins Panlabs Discovery Services Taiwan, Ltd. (New Taipei City, Taiwan). In the assays, five or six concentrations of nobiletin over five or six orders of magnitude were examined in experiments conducted in duplicate to determine the IC50 (concentration of nobiletin exerting half-maximal inhibition of control-specific activity). IC50 values were determined by nonlinear least squares regression analysis using MathIQTM (ID Business Solutions Ltd., Woking, UK). FAM-cAMP, FAM-cGMP (0.1 μM), and 100 μM [^3H]cGMP + cGMP were used for the substrate in the human recombinant insect Sf9 cells or Bovine retinal rod outer segments depending on the PDE subtype. The spectrofluorometric quantitation of fluorescein-AMP-IMAP, fluorescein-GMP-IMAP, or [^3H] guanosine was used depending on the PDE subtype. A known […] of each PDE was used as the positive control.

[1] = set-up: method as in doi:10.1016/j.jddst.2022.104013; settings: rats; cited from earlier work
PDE7A = molecular target: T2, PDE7A (Homo sapiens, UniProt Q13946); experiment: PDE enzyme  assay, PDE7A; assay type: biochemical
T2 construct: purchased Eurofins Panlabs Discovery Services Taiwan, Ltd. (contract assay); host or cells: insect Sf9 cells
T2 sequence (Q13946 whole entry): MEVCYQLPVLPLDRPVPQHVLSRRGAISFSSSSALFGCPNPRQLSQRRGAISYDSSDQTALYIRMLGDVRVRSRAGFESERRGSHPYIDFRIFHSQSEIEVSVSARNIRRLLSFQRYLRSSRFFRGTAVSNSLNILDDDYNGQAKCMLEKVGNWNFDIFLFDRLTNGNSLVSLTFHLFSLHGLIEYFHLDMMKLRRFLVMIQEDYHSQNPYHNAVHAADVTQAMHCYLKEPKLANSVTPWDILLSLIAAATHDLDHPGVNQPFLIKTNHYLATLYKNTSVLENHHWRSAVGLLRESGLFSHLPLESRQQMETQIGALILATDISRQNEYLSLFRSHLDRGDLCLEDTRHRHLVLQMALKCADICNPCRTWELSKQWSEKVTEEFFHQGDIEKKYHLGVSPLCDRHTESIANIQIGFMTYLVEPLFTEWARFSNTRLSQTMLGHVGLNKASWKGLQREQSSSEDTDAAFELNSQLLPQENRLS
Procedure: as §1

PDE5A = molecular target: T3, PDE5A (Homo sapiens, UniProt O76074); experiment: PDE enzyme  assay, PDE5A; assay type: biochemical
T3 construct: purchased Eurofins Panlabs Discovery Services Taiwan, Ltd. (contract assay); host or cells: insect Sf9 cells
Procedure: as §1

[2] = system: PER2::LUC rhythm in peripheral tissues (kidney, liver, submandibular gland); experiment: In vivo bioluminescence imaging of peripheral PER2::LUC rhythm; set-up: species or system mice; settings: 100 mg/kg i.p., 3 days
Procedure: Male C57BL/6J mice (7 weeks old) were purchased from Charles River Japan (Kanagawa, Japan) and used for the serum hormone assay and RT-PCR. Male ICR mice were purchased from Tokyo Laboratory Animals Science Co., Ltd. (Tokyo, Japan), and female PERIOD2::LUCIFERASE (PER2::LUC) knock-in mice (ICR background) bred at Waseda University were used for blood glucose measurements and in vivo imaging assays, respectively. The mice were all housed under conditions of controlled temperature (23 °C ± 3 °C), humidity (50% ± 20%), and lighting (lights on from 07:00 to 19:00 at Taisho Pharmaceutical Co., Ltd. or from 08:00 to 20:00 at Waseda University). In the 24 h cycle, Zeitgeber time 0 (ZT0) was designated as the time when the lights were turned on, and ZT12 was designated as the time when the lights were turned off. All the mice were given access to food and tap water ad libitum, and nobiletin (10–100 mg/kg; purchased from FUJIFILM Wako Pure Chemical Corporation, Osaka, Japan) was administered by intraperitoneal (i.p.) injection in the vehicle (10 mL/kg body weight) containing 0.5% carboxymethyl cellulose (CMC). Rolipram (PDE4 inhibitor, FUJIFILM Wako Pure Chemical Corporation) and SR1078 (RORα/γ agonist, FUJIFILM Wako Pure Chemical Corporation) were also used for the experiment at 10 mg/kg in 0.5% CMC [12]. Mice were euthanized by rapid decapitation for whole blood samples.
An in vivo imaging system (IVIS) (Caliper Life Sciences, Hopkinton, MA, USA) was used to monitor the PER2::LUC activity rhythm waveform in the peripheral tissues (kidney, liver, and submandibular gland) of the mice. A previously developed protocol and analytical method to monitor bioluminescence oscillations in peripheral tissues was used. Briefly, the mice were anesthetized with isoflurane (FUJIFILM Wako Pure Chemical Corporation, Osaka, Japan) and enriched with oxygen. Mice were anesthetized and injected subcutaneously on the back and near the neck with D-luciferin potassium salt (FUJIFILM Wako Pure Chemical Corporation, Osaka, Japan) at a dose of 15 mg/kg body weight. Images were taken using an IVIS, in the dorsal-up position for the kidney 8 min after injection and in the ventral-up position for the liver and the submandibular gland 10 min after injection. Images were obtained six times/day at 4 h intervals (ZT3, 7, 11, 15, 19, and 23) (Figure 1 and Figure 2). The mice were returned to their home cages after each imaging procedure and quickly recovered from isoflurane anesthesia. Bioluminescence emitted from the kidneys and liver was calculated automatically using Living Image 3.2 software (Caliper Life Sciences). The average photon/min value for the six time points from each day was designated as 100%, and the bioluminescence rhythm for the entire day was expressed as a percentage of each set of six time points for individual organs. The peak phase and amplitude of the normalized data were determined using a single cosinor procedure program (Acro.exe version 3.5 [14]).
Figure 1 Experimental protocol for in vivo imaging. PER2::LUC female mice were treated with control (0.5% CMC) or nobiletin (100 mg/kg) at the same time points (ZT0, 4, 8, 12, 16, or 20) for three consecutive days, and then measured for peripheral clocks by in vivo whole-body imaging to examine phase–response curves (n = 4–5 in each).
Figure 2 Time-of-day dependence of peripheral PER2::LUC changes in nobiletin injection. (A) Representative photo images of in vivo PER2::LUC bioluminescence in the kidney, liver, and submandibular gland (sab gla). (B) Waveforms of PER2::LUC rhythm in each tissue at each treatment time. (C,D) Phase–response curves or amplitude–response curves of nobiletin injections in peripheral PER2::LUC rhythm. […]

T1 sequence (Q9NP56 whole entry): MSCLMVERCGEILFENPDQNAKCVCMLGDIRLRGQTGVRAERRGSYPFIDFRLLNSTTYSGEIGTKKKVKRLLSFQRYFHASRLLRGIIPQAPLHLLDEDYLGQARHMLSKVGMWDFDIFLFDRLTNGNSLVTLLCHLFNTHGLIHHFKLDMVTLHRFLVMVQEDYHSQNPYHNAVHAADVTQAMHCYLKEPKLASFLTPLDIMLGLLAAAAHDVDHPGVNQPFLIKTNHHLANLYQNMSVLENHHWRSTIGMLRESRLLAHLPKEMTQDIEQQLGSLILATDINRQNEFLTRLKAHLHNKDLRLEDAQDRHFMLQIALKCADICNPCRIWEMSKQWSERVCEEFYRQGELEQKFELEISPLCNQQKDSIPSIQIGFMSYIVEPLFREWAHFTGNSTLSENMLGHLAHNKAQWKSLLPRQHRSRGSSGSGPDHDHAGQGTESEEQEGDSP

## COc1ccc(-c2cc(=O)c3c(OC)c(OC)c(OC)c(OC)c3o2)cc1OC [nobiletin]
PDE7B
  IC50: 20.4 µM
[1]
  time of the highest plasma concentration: 2 to 4 h
PDE7A
  IC50: 11.9 µM
PDE5A
  IC50: 14.8 µM
[2]; kidney, liver and submandibular gland (all three tissues), treatment at ZT16
  amplitude of PER2::LUC rhythm vs control: increased
[2]; kidney, administration at ZT4
  phase of PER2::LUC rhythm vs control: phase advancement
[2]; kidney, treatment at ZT0 or 4
  amplitude of PER2::LUC rhythm vs control: decreased
[2]; kidney, treatment at ZT20
  phase of PER2::LUC rhythm vs control: phase delay
[2]; liver, treatment at ZT12
  amplitude of PER2::LUC rhythm vs control: decreased
  phase of PER2::LUC rhythm vs control: phase-advanced
[2]; submandibular gland, administration at ZT4
  phase of PER2::LUC rhythm vs control: phase advancement
